Measured values: patent US12599582B2, “Pyrrole compounds” (ALIGOS THERAPEUTICS, INC., priority 2019, dated 2026)

system: HBV; assay: HBV-DNA Antiviral Assay Using HepG2.2.15 Cells (extracellular HBV DNA by qPCR); format: cell-based, hepatitis B virus (HBV); conditions: HBV DNA inhibition, HepG2.2.15 cells, extracellular HBV DNA by qPCR; read-out: EC50
Experimental: The following assay procedure describes the HBV antiviral assay. This assay uses HepG2.2.15 cells, which have been transfected with HBV genome, and extracellular HBV DNA quantification as endpoint. Cell viability is assessed in parallel by measuring the intracellular ATP content using the CellTiter-Glo® reagent from Promega.
On day 0, HepG2.2.15 cells were seeded in 96-well plates at a density of 6.0×10^4 cells/well (0.1 mL/well). The cells were incubated at 37° C. and 5% CO2.
On day 1, the test articles were diluted and added to cell culture wells (8 concentrations, 4-fold dilution, in duplicate). GLS4, Tenofovir and Sorafenib were used as reference compounds. 100 μL of culture medium containing the compounds was added to the plate, and the final total volume per well was 200 μL. The final concentration of DMSO in the culture medium was 0.5%. The plate map of compound treatment is shown below. The cells were cultured at 37° C. and 5% CO2 for 3 days.
On day 4, the plates were refreshed with culture media with compounds.
On day 7, cell viability was assessed using the CellTiter-Glo®, and the cell culture supernatants were collected for determination of HBV DNA by qPCR.
Extracellular DNA was isolated with QIAamp 96 DNA Blood Kit per the manufacturer's manual. HBV DNA was then quantified by qPCR with HBV specific primers and probes as specified in Table 1 using the FastStart Universal MasterMix from Roche on an ABI-7900HT. The PCR cycle program consisted of 95° C. for 10 min, followed by 40 cycles at 95° C. for 15 sec and 60° C. for 1 min.
A DNA standard was prepared by dilution of the pAAV2 HBV1.3 plasmid with concentrations ranging from 10 to 1×10^7 copies/uL and used to generate a standard curve by plotting Ct value vs. the concentration of the HBV plasmid DNA standard. The quantity of HBV DNA in each sample was determined by interpolating from the standard curve.
Cell viability was calculated as follows: % Cell viability=(luminescence value of test sample−average luminescence value of blank)/(average luminescence value of 0.5% DMSO control−average luminescence of blank)×100%. HBV DNA inhibition was calculated as follows: 100−(HBV DNA copy number of test sample−HBV DNA copy number of ETV)/HBV DNA copy number of 0.5% DMSO control−HBV DNA copy number of ETV)×100%. The CC50, EC50 and EC90 values were determined by dose-response curves fitted by GraphPad Prism using “log (agonist) vs. response—Variable slope”.

| SMILES | EC50 |
| --- | --- |
| Cc1c(C(=O)C(=O)NC2(c3c[nH]nn3)COC2)c(C)n(C)c1C(=O)Nc1ccc(F)c(C#N)c1 [Compound 29, N-(3-cyano-4-fluoro-phenyl)-1,3,5-trimethyl-4-[2-oxo-2-[[3-(1H-triazol-4-yl)oxetan-3-yl]amino]acetyl]pyrrole-2-carboxamide] | 1 to 10 nM |

same assay, conditions: Hepatitis B virus, HepG2.2.15

| SMILES | EC50 |
| --- | --- |
| C#CC1(NC(=O)C(=O)c2c(C)c(C(=O)Nc3ccc(F)c(C#N)c3)n(C)c2C)COC1 [Compound 26, N-(3-cyano-4-fluorophenyl)-4-[[(3-ethynyloxetan-3-yl)carbamoyl]carbonyl]-1,3,5-trimethylpyrrole-2-carboxamide] | < 1 nM |

same assay, conditions: Hepatitis B virus; HBV DNA inhibition, HepG2.2.15 cells, extracellular HBV DNA by qPCR; read-out: EC50

| SMILES | EC50 |
| --- | --- |
| C#CCNC(=O)C(=O)c1cc(C(=O)Nc2ccc(F)c(C#N)c2)n(C)c1C [Compound 27, N-(3-cyano-4-fluoro-phenyl)-1,5-dimethyl-4-[2-oxo-2-(prop-2-ynylamino)acetyl]pyrrole-2-carboxamide] | 10 to 100 nM |
| C#C[C@@H](COC)NC(=O)C(=O)c1c(C)c(C(=O)Nc2ccc(F)c(C#N)c2)n(C)c1C [Compound 28a, N-(3-cyano-4-fluoro-phenyl)-4-[2-[[(1S)-1-(methoxymethyl)prop-2-ynyl]amino]-2-oxo-acetyl]-1,3,5-trimethyl-pyrrole-2-carboxamide] | 1 to 10 nM |
| C#C[C@H](COC)NC(=O)C(=O)c1c(C)c(C(=O)Nc2ccc(F)c(C#N)c2)n(C)c1C [Compound 28b, N-(3-cyano-4-fluoro-phenyl)-4-[2-[[(1R)-1-(methoxymethyl)prop-2-ynyl]amino]-2-oxo-acetyl]-1,3,5-trimethyl-pyrrole-2-carboxamide] | 1 to 10 nM |
| C#C[C@H](NC(=O)C(=O)c1c(C)c(C(=O)Nc2ccc(F)c(C#N)c2)n(C)c1C)C(C)(C)C [Compound 30a, N-(3-cyano-4-fluoro-phenyl)-1,3,5-trimethyl-4-[2-oxo-2-[[(1R)-1-tert-butylprop-2-ynyl]amino]acetyl]pyrrole-2-carboxamide] | < 1 nM |
| C#C[C@@H](NC(=O)C(=O)c1c(C)c(C(=O)Nc2ccc(F)c(C#N)c2)n(C)c1C)C(C)(C)C [Compound 30b, N-(3-cyano-4-fluoro-phenyl)-1,3,5-trimethyl-4-[2-oxo-2-[[(1S)-1-tert-butylprop-2-ynyl]amino]acetyl]pyrrole-2-carboxamide] | < 1 nM |
| C#CC1(NC(=O)C(=O)c2c(C)c(C(=O)Nc3ccc(F)c(C#N)c3)n(C)c2C)CC(O)C1 (stereo not shown) [Compound 32, N-(3-cyano-4-fluorophenyl)-4-[[(1-ethynyl-3-hydroxycyclobutyl)carbamoyl]carbonyl]-1,3,5-trimethylpyrrole-2-carboxamide] | 1 to 10 nM |
| C=CC1(NC(=O)C(=O)c2c(C)c(C(=O)Nc3ccc(F)c(C#N)c3)n(C)c2C)COC1 [Compound 33, N-(3-cyano-4-fluoro-phenyl)-1,3,5-trimethyl-4-[2-oxo-2-[(3-vinyloxetan-3-yl)amino]acetyl]pyrrole-2-carboxamide] | 1 to 10 nM |
| C#CC1(NC(=O)C(=O)c2c(C)c(C(=O)Nc3ccc(F)c(C(F)(F)F)c3)n(C)c2C)COC1 [Compound 34, 4-[2-[(3-ethynyloxetan-3-yl)amino]-2-oxo-acetyl]-N-[4-fluoro-3-(trifluoromethyl)phenyl]-1,3,5-trimethyl-pyrrole-2-carboxamide] | < 1 nM |
| C#CC(C)(C)NC(=O)C(=O)c1c(C)c(C(=O)Nc2ccc(F)c(C(F)(F)F)c2)n(C)c1C [Compound 35, 4-[2-(1,1-dimethylprop-2-ynylamino)-2-oxo-acetyl]-N-[4-fluoro-3-(trifluoromethyl)phenyl]-1,3,5-trimethyl-pyrrole-2-carboxamide] | < 1 nM |
| C=C[C@H](NC(=O)C(=O)c1c(C)c(C(=O)Nc2ccc(F)c(C#N)c2)n(C)c1C)C(F)(F)F [Compound 36a, N-(3-cyano-4-fluoro-phenyl)-1,3,5-trimethyl-4-[2-oxo-2-[[(1S)-1-(trifluoromethyl)allyl]amino]acetyl]pyrrole-2-carboxamide] | < 1 nM |
| C=C[C@@H](NC(=O)C(=O)c1c(C)c(C(=O)Nc2ccc(F)c(C#N)c2)n(C)c1C)C(F)(F)F [Compound 36b, N-(3-cyano-4-fluoro-phenyl)-1,3,5-trimethyl-4-[2-oxo-2-[[(1R)-1-(trifluoromethyl)allyl]amino]acetyl]pyrrole-2-carboxamide] | < 1 nM |
| C#CC1(NC(=O)C(=O)c2c(C)c(C(=O)Nc3ccc(F)c(C(F)(F)F)c3)n(C)c2C)CC(F)(F)C1 [Compound 37, 4-[2-[(1-ethynyl-3,3-difluoro-cyclobutyl)amino]-2-oxo-acetyl]-N-[4-fluoro-3-(trifluoromethyl)phenyl]-1,3,5-trimethyl-pyrrole-2-carboxamide] | < 1 nM |
| C#C[C@H](NC(=O)C(=O)c1c(C)c(C(=O)Nc2ccc(F)c(C(F)(F)F)c2)n(C)c1C)C1CC1 [Compound 38a, N-[4-fluoro-3-(trifluoromethyl)phenyl]-1,3,5-trimethyl-4-[2-oxo-2-[[(1R)-1-cyclopropylprop-2-ynyl]amino]acetyl]pyrrole-2-carboxamide] | < 1 nM |
| C#C[C@@H](NC(=O)C(=O)c1c(C)c(C(=O)Nc2ccc(F)c(C(F)(F)F)c2)n(C)c1C)C1CC1 [Compound 38b, N-[4-fluoro-3-(trifluoromethyl)phenyl]-1,3,5-trimethyl-4-[2-oxo-2-[[(1S)-1-cyclopropylprop-2-ynyl]amino]acetyl]pyrrole-2-carboxamide] | < 1 nM |
| C#CC1(NC(=O)C(=O)c2c(C)c(C(=O)Nc3ccc(F)c(C#N)c3)n(C)c2Cl)CC(F)(F)C1 [Compound 39, 5-chloro-N-(3-cyano-4-fluoro-phenyl)-4-[2-[(1-ethynyl-3,3-difluoro-cyclobutyl)amino]-2-oxo-acetyl]-1,3-dimethyl-pyrrole-2-carboxamide] | < 1 nM |
| C#CC1(NC(=O)C(=O)c2c(C)c(C(=O)Nc3ccc(F)c(C#N)c3)n(C)c2Cl)COC1 [Compound 40, 5-chloro-N-(3-cyano-4-fluoro-phenyl)-4-[2-[(3-ethynyloxetan-3-yl)amino]-2-oxo-acetyl]-1,3-dimethyl-pyrrole-2-carboxamide] | < 1 nM |
| C=CC1(NC(=O)C(=O)c2c(C)c(C(=O)Nc3ccc(F)c(C#N)c3)n(C)c2Cl)COC1 [Compound 41, 5-chloro-N-(3-cyano-4-fluoro-phenyl)-1,3-dimethyl-4-[2-oxo-2-[(3-vinyloxetan-3-yl)amino]acetyl]pyrrole-2-carboxamide] | 1 to 10 nM |
| C#CC1(NC(=O)C(=O)c2c(C)c(C(=O)Nc3ccc(F)c(C(F)(F)F)c3)n(C)c2C)CC(O)C1 (stereo not shown) [Compound 49, 4-[2-[(1-ethynyl-3-hydroxy-cyclobutyl)amino]-2-oxo-acetyl]-N-[4-fluoro-3-(trifluoromethyl)phenyl]-1,3,5-trimethyl-pyrrole-2-carboxamide] | < 1 nM |
| CC#CC1(NC(=O)C(=O)c2c(C)c(C(=O)Nc3ccc(F)c(C#N)c3)n(C)c2C)COC1 [Compound 50, N-(3-cyano-4-fluoro-phenyl)-1,3,5-trimethyl-4-[2-oxo-2-[(3-prop-1-ynyloxetan-3-yl)amino]acetyl]pyrrole-2-carboxamide] | < 1 nM |
| C=CC1(NC(=O)C(=O)c2c(Cl)c(C(=O)Nc3ccc(F)c(C#N)c3)n(C)c2C)CC(F)(F)C1 [Compound 51, 3-chloro-N-(3-cyano-4-fluoro-phenyl)-4-[2-[(3,3-difluoro-1-vinyl-cyclobutyl)amino]-2-oxo-acetyl]-1,5-dimethyl-pyrrole-2-carboxamide] | < 1 nM |
